# Legend:
# AMBEL (Ragweed, Common) = assay: Postemergence herbicidal evaluation; format: in vivo, Ambrosia artemisifolia; details: postemergence
# Outline: (§1)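 Visual 0-9 injury score (stand, vigor, malformation, size, chlorosis, appearance vs untreated) taken four to five weeks post-spray, averaged across repeat tests. Test plants about two weeks old; foliar spray of acetone/water (1:1) with 0.5% surfactant delivering ~0.0156-0.500 kg active/ha.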
# SETVI (Foxtail, Green) [1] = assay: Preemergence herbicidal evaluation; format: in vivo, Setaria viridis; details: rated 4-5 weeks after treatment
# Outline: (§2)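 Scores (0–9) reflect visual comparison with control plants for stand, vigor, malformation, size and chlorosis. Compound was applied to the soil after sowing, before emergence, as an aqueous acetone spray (about 0.0156–0.500 kg/ha), and cups were kept in a greenhouse for 4–5 weeks.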
# ECHCG (Barnyardgrass) = assay: Postemergence herbicidal evaluation; format: in vivo, Echinochloa crus-galli; details: postemergence
# Outline: as §1
# CYPIR (Rice Flatsedge) = assay: Postemergence weed control under flooded paddy conditions; format: in vivo, Cyperus iria; details: postemergence weeds, 3-4 weeks after treatment
# Outline: (§3)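 Weeds 3 to 5 cm tall and rice seedlings at the 1.5 to 2.5 leaf stage were flooded, with water held 1.5 to 3 cm above the soil. Compounds in 50/50 v/v aqueous/acetone went into the flood water at about 0.0313 to 0.500 kg/ha. Visual 0-9 ratings versus control were made 3 to 4 weeks later.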
# [2] = test system: TRZAWR (Wheat, Winter, cv Riband); assay: Postemergence herbicidal evaluation; format: in vivo, Triticum aestivum; details: postemergence
# Outline: as §1
# [3] = test system: SAGPY (Arrowhead (Pygmaea)); assay: Preemergence weed control under flooded paddy conditions; format: in vivo, Sagittaria pygmaea; details: rated 3-4 weeks after treatment
# Outline: (§4)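 Seeds or propagules sown in silt loam kept flooded 1.5-3 cm; compounds in 50/50 acetone/water pipetted into flood water at about 0.0313 to 0.500 kg/ha. Greenhouse; visual 0-9 rating versus untreated control 3-4 weeks after treatment.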
# [4] = test system: SAGPY (Arrowhead (Pygmaea)); assay: Postemergence weed control under flooded paddy conditions; format: in vivo, Sagittaria pygmaea; details: postemergence weeds, 3-4 weeks after treatment
# Outline: as §3
# ABUTH (Velvetleaf) [5] = assay: Postemergence herbicidal evaluation; format: in vivo, Abutilon theophrasti; details: postemergence
# Outline: as §1
# SETVI (Foxtail, Green) [6] = assay: Postemergence herbicidal evaluation; format: in vivo, Setaria viridis; details: postemergence
# Outline: as §1
# ORYSAT (Rice, Tebonnet) = assay: Postemergence herbicidal evaluation; format: in vivo, Oryza sativa, (L.) Tebonnet; details: postemergence
# Outline: as §1
# ABUTH (Velvetleaf) [7] = assay: Preemergence herbicidal evaluation; format: in vivo, Abutilon theophrasti; details: rated 4-5 weeks after treatment
# Outline: as §2
# CASOB (Sicklepod) = assay: Preemergence herbicidal evaluation; format: in vivo, Cassia obtusifolia; details: rated 4-5 weeks after treatment
# Outline: as §2
# [8] = test system: GLXMAW (Soybean, Williams); assay: Postemergence herbicidal evaluation; format: in vivo, Glycine max, (L.) Merr. cv Williams; details: postemergence
# Outline: as §1
# MOOVA (Monochoria) = assay: Preemergence weed control under flooded paddy conditions; format: in vivo, Monochoria vaginalis; details: rated 3-4 weeks after treatment
# Outline: as §4
smiles,measurement,setting,value
"CCOC(=O)CN1C(=O)C(=C2CCCC2)SC1=Nc1cc(-n2c(=O)cc(C(F)(F)F)n(C)c2=O)c(F)cc1Cl [Compound 18, Ethyl 2-{{2-chloro-5-[3,6-dihydro-3-methyl-2,6-dioxo-4-(trifluoromethyl)-1(2H)-pyrimidinyl]-4-fluorophenyl}imino}-5-cyclopentylidene-4-oxo-3-thiazolidineacetate]",AMBEL herbicidal rating,"AMBEL (Ragweed, Common); rate 0.0158 kg/ha",4.0
same,AMBEL herbicidal rating,"AMBEL (Ragweed, Common); rate 0.0315 kg/ha",9.0
same,AMBEL herbicidal rating,"AMBEL (Ragweed, Common); rate 0.0630 kg/ha",7.0
same,SETVI preemergence herbicidal rating,"SETVI (Foxtail, Green) [1]; rate 0.1250 kg/ha",0.0
same,SETVI preemergence herbicidal rating,"SETVI (Foxtail, Green) [1]; rate 0.2500 kg/ha",2.0
same,ECHCG herbicidal rating,ECHCG (Barnyardgrass); rate 0.0158 kg/ha,1.0
same,ECHCG herbicidal rating,ECHCG (Barnyardgrass); rate 0.0315 kg/ha,1.0
same,ECHCG herbicidal rating,ECHCG (Barnyardgrass); rate 0.0630 kg/ha,2.0
same,Herbicidal rating CYPIR,CYPIR (Rice Flatsedge); rate 0.1160 kg/ha,0.0
same,Herbicidal rating CYPIR,CYPIR (Rice Flatsedge); rate 0.2310 kg/ha,0.0
same,Herbicidal rating CYPIR,CYPIR (Rice Flatsedge); rate 0.4630 kg/ha,0.0
same,TRZAWR herbicidal rating,[2]; rate 0.0158 kg/ha,2.5
same,TRZAWR herbicidal rating,[2]; rate 0.0315 kg/ha,3.0
same,TRZAWR herbicidal rating,[2]; rate 0.0630 kg/ha,3.0
same,Herbicidal rating SAGPY,[3]; 0.1160 kg/ha,0.0
same,Herbicidal rating SAGPY,[3]; 0.2310 kg/ha,0.0
same,Herbicidal rating SAGPY,[3]; 0.4630 kg/ha,6.0
same,Herbicidal rating SAGPY,[4]; rate 0.1160 kg/ha,0.0
same,Herbicidal rating SAGPY,[4]; rate 0.2310 kg/ha,0.0
same,Herbicidal rating SAGPY,[4]; rate 0.4630 kg/ha,6.0
same,ABUTH herbicidal rating,ABUTH (Velvetleaf) [5]; rate 0.0158 kg/ha,9.0
same,ABUTH herbicidal rating,ABUTH (Velvetleaf) [5]; rate 0.0315 kg/ha,9.0
same,ABUTH herbicidal rating,ABUTH (Velvetleaf) [5]; rate 0.0630 kg/ha,9.0
same,SETVI herbicidal rating,"SETVI (Foxtail, Green) [6]; rate 0.0158 kg/ha",0.0
same,SETVI herbicidal rating,"SETVI (Foxtail, Green) [6]; rate 0.0315 kg/ha",1.0
same,SETVI herbicidal rating,"SETVI (Foxtail, Green) [6]; rate 0.0630 kg/ha",6.0
same,ORYSAT herbicidal rating,"ORYSAT (Rice, Tebonnet); rate 0.0158 kg/ha",2.0
same,ORYSAT herbicidal rating,"ORYSAT (Rice, Tebonnet); rate 0.0315 kg/ha",1.5
same,ORYSAT herbicidal rating,"ORYSAT (Rice, Tebonnet); rate 0.0630 kg/ha",1.5
same,ABUTH preemergence herbicidal rating,ABUTH (Velvetleaf) [7]; rate 0.1250 kg/ha,2.0
same,ABUTH preemergence herbicidal rating,ABUTH (Velvetleaf) [7]; rate 0.2500 kg/ha,9.0
same,CASOB preemergence herbicidal rating,CASOB (Sicklepod); rate 0.1250 kg/ha,0.0
same,CASOB preemergence herbicidal rating,CASOB (Sicklepod); rate 0.2500 kg/ha,0.0
same,GLXMAW herbicidal rating,[8]; rate 0.0158 kg/ha,3.5
same,GLXMAW herbicidal rating,[8]; rate 0.0315 kg/ha,3.5
same,GLXMAW herbicidal rating,[8]; rate 0.0630 kg/ha,3.5
same,Herbicidal rating MOOVA,MOOVA (Monochoria); 0.1160 kg/ha,9.0
same,Herbicidal rating MOOVA,MOOVA (Monochoria); 0.2310 kg/ha,9.0
same,Herbicidal rating MOOVA,MOOVA (Monochoria); 0.4630 kg/ha,9.0

# — patent US20020137929A1, “1 - (3-heterocyclylphenyl) isothiourea, -isourea, -guanidine and -amidine herbicidal agents” (Intellectual Property Department, BASF Aktiengesellschaft, priority 1998, published 2002)
